Source: patent US6461619B1 (Somerset Pharmaceuticals, Inc., priority 1998, dated 2002)
Where a name gives a salt, the structure may show the parent alone.

Tests used:
[1] = system: second-degree burn wounds; test: second-degree burn wound model, epidermal migration (epithelization) assessment; assay type: in vivo, Swine; conditions: for Percent of wounds completely epithelized / number of wounds healed (completely epithelized) over the number of wounds assessed: pig
Experimental: The ability of selegiline and desmethylselegiline to assist in the healing of burns was tested using a second-degree burn wound model. In second-degree burns, the entire surface of the epidermis is destroyed. An epidermal covering is regenerated from the remaining epithelial and epidermal cells adjacent to the burns. This phase of the healing process is called epithelization.
Swine were used for the experimental research animal because their skin has many morphological similarities to human skin. Seven young female specific pathogen free (SPF:Ken-O-Kaw Farms, Windsor, Ill.) pigs weighing 25-30 kg were kept in house for two weeks prior to initiating the experiment. These animals were fed a basal diet ad libitum and housed individually in facilities with controlled temperature (19-21° C.) and lights (12 h/12 h LD).
Experimental animals were clipped with standard animal clippers on the day of the experiment. The skin on the back and both sides of the animal was prepared for wounding by washing with a non-antibiotic soap and sterile water. Each animal was anesthetized i.m. with ketamine-HCl (20 mg/kg), xylazine (2 mg/kg) and atropine (0.05 mg/kg), followed by mask inhalation of an isoflurane and oxygen combination. Five specifically designed cylindrical brass rods weighing 358 g each were heated in a boiling water bath to 100° C. A rod was removed from the water bath and wiped dry before being applied to the skin surface to prevent water droplets from creating a steam burn on the skin. The brass rod was held at a vertical position on the skin for six seconds with all pressure being supplied by gravity in order to make a burn 8.5 mm diameter×0.8 mm deep. Immediately after burning, the roof of the burn blister was removed with a sterile spatula. The burn wounds were made approximately 2 cm from each other.
Approximately 90 burn wounds were made on the anterior two-thirds of the animal. The posterior third of the animal cannot be used because of anatomical differences in burn wound healing (a more rapid healing of burns has been observed at that position).
A total of seven animals were used and a total of fifteen wounds per treatment group were analyzed on each of days 7-12 after wounding. Treatments were coded to maintain blind study compliance. The burn wounds were treated with 25 ug of test article (enough to cover each wound). Treatments were allowed to penetrate into the sites for at least a 20 minute time period. Each treatment was applied within 20 minutes of blister removal and treatment occurred once a day for the first five days.
Beginning on day seven after wounding (day 0) and each day thereafter for four to six days, five burn wounds and the surrounding normal skin from each treatment area were excised using an electrokeratome. Any specimens that were not excised intact were discarded. The excised wounds and the surrounding normal skin were incubated in 0.5 M NaBr for 24 hours at 37° C. After incubation, the specimens were separated into epidermal and dermal sheets. The epidermis was examined macroscopically for defects in the area of the burn wounds. Epithelization was considered complete if no defect was present (healed). […] The epidermal sheet was placed on cardboard for a permanent record.
The number of wounds healed (completely epithelized) were divided by the total number of wounds sampled per day and multiplied by 100.

MAO-A = biological target: T1, MAO-A (Homo sapiens, UniProt P21397); conditions: in comparison to selegiline, background statement; cited from earlier work
T1 sequence (P21397 1-527): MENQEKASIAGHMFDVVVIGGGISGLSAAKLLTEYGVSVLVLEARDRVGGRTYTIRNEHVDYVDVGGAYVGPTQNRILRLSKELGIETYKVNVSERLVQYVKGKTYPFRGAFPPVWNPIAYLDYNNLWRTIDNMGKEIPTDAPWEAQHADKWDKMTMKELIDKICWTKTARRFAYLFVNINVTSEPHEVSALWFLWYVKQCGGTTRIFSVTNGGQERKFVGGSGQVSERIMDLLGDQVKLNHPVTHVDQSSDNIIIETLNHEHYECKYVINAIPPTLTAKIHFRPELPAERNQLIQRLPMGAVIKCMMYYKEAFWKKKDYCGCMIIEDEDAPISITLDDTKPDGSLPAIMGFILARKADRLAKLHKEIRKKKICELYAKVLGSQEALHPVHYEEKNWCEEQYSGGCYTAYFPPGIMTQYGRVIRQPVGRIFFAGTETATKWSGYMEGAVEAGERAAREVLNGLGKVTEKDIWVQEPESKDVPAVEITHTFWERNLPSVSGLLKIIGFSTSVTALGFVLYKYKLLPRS

monoamine oxidase B = biological target: T2, monoamine oxidase B (Homo sapiens, UniProt P27338); conditions: background statement; cited from earlier work
T2 sequence (P27338 1-520): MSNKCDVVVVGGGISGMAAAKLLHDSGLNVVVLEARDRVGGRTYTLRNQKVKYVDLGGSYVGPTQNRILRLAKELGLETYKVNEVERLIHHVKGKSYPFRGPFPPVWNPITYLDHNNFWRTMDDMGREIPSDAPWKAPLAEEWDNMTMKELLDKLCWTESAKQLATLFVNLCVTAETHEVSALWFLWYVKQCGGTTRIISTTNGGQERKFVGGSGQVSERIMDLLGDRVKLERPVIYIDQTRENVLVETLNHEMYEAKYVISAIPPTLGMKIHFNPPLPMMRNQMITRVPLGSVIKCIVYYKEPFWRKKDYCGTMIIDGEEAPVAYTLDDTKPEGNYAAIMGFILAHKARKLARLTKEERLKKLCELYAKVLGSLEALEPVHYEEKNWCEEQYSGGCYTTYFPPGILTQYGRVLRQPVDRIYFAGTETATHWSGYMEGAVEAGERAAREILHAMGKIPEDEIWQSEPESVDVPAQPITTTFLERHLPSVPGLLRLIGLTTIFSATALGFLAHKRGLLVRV

[2] = 10^-4M topical, day 7 after burning
[3] = 10^-4M topical, day 8 after burning
[4] = 10^-4M topical, day 9 after burning
[5] = 10^-4M topical, day 10 after burning
[6] = 10^-4M topical, day 11 after burning
[7] = 10^-4M topical, day 12 after burning
[8] = 10^-4M topical, day 13 after burning
[9] = 10^-6M topical, day 7 after burning
[10] = 10^-6M topical, day 8 after burning
[11] = 10^-6M topical, day 9 after burning
[12] = 10^-6M topical, day 10 after burning
[13] = 10^-8M topical, day 7 after burning
[14] = 10^-8M topical, day 8 after burning
[15] = 10^-8M topical, day 9 after burning
[16] = 10^-8M topical, day 10 after burning
[17] = 10^-8M topical, day 11 after burning
[18] = 10^-8M topical, day 12 after burning
[19] = 10^-8M topical, day 13 after burning

C#CCNC(C)Cc1ccccc1 (centres unmarked) [desmethylselegiline HCl, desmethylselegiline]
Percent of wounds completely epithelized [1, 2]: (0%)
number of wounds healed (completely epithelized) over the number of wounds assessed [1, 2]:  0/15
Percent of wounds completely epithelized [1, 3]: (0%)
number of wounds healed (completely epithelized) over the number of wounds assessed [1, 3]:  0/15
Percent of wounds completely epithelized [1, 4]: (0%)
number of wounds healed (completely epithelized) over the number of wounds assessed [1, 4]:  0/15
Percent of wounds completely epithelized [1, 5]: (0%)
number of wounds healed (completely epithelized) over the number of wounds assessed [1, 5]:  0/15
Percent of wounds completely epithelized [1, 6]: 7%
number of wounds healed (completely epithelized) over the number of wounds assessed [1, 6]:  1/15
Percent of wounds completely epithelized ([1]; 10^-4M topical, day 11 after burning, listed as B-1): (7%)
Percent of wounds completely epithelized [1, 7]: 33%
number of wounds healed (completely epithelized) over the number of wounds assessed [1, 7]:  5/15
Percent of wounds completely epithelized ([1]; 10^-4M topical, day 12 after burning, listed as B-1): (33%)
Percent of wounds completely epithelized [1, 8]: 69%
number of wounds healed (completely epithelized) over the number of wounds assessed [1, 8]: {fraction (11/16 )}
Percent of wounds completely epithelized ([1]; 10^-4M topical, day 13 after burning, listed as B-1): (69%)
time to complete epithelization compared with other treatment groups ([1]; 10^-6 M): completely epithelized sooner than all other treatment groups
Percent of wounds completely epithelized [1, 9]: (0%)
number of wounds healed (completely epithelized) over the number of wounds assessed [1, 9]:  0/15
Percent of wounds completely epithelized [1, 10]: (0%)
number of wounds healed (completely epithelized) over the number of wounds assessed [1, 10]:  0/15
Percent of wounds completely epithelized [1, 11]: (0%)
number of wounds healed (completely epithelized) over the number of wounds assessed [1, 11]:  0/15
Percent of wounds completely epithelized [1, 12]: (0%)
number of wounds healed (completely epithelized) over the number of wounds assessed [1, 12]:  0/15
number of wounds healed (completely epithelized) over the number of wounds assessed ([1]; 10^-6M topical, day 11 after burning):  5/15
number of wounds healed (completely epithelized) over the number of wounds assessed ([1]; 10^-6M topical, day 12 after burning):  7/15
number of wounds healed (completely epithelized) over the number of wounds assessed ([1]; 10^-6M topical, day 13 after burning):  6/16
Percent of wounds completely epithelized [1, 13]: (0%)
number of wounds healed (completely epithelized) over the number of wounds assessed [1, 13]:  0/15
Percent of wounds completely epithelized [1, 14]: (0%)
number of wounds healed (completely epithelized) over the number of wounds assessed [1, 14]:  0/15
Percent of wounds completely epithelized [1, 15]: (0%)
number of wounds healed (completely epithelized) over the number of wounds assessed [1, 15]:  0/15
Percent of wounds completely epithelized [1, 16]: (0%)
number of wounds healed (completely epithelized) over the number of wounds assessed [1, 16]:  0/15
Percent of wounds completely epithelized [1, 17]: 33%
number of wounds healed (completely epithelized) over the number of wounds assessed [1, 17]:  5/15
Percent of wounds completely epithelized ([1]; 10^-8M topical, day 11 after burning, listed as B-3): (33%)
Percent of wounds completely epithelized [1, 18]: 67%
number of wounds healed (completely epithelized) over the number of wounds assessed [1, 18]: {fraction (10/15 )}
Percent of wounds completely epithelized ([1]; 10^-8M topical, day 12 after burning, listed as B-3): (67%)
Percent of wounds completely epithelized [1, 19]: 67%
number of wounds healed (completely epithelized) over the number of wounds assessed [1, 19]: {fraction (40/15 )}
Percent of wounds completely epithelized ([1]; 10^-8M topical, day 13 after burning, listed as B-3): (67%)
percentage of wounds completely epithelized compared with other groups ([1]; day thirteen, all concentrations): higher percentage of wounds completely epithelized on day thirteen
wound crust colour during absorption of applied agent ([1]; first three days of treatment, normal again after 15 minutes): more pronounced
inhibition of MAO-A (MAO-A): decreased to an even greater extent
MAO-B inhibitory activity (monoamine oxidase B): reduced MAO-B inhibitory activity in comparison to selegiline
